Source: PubChem BioAssay AID1745844 (Carcinogenic Potency Database (CPDB), 2022)
Calls of active or inactive are those of the source. The rule behind the calls is not given here.

Tested on: rodent lifetime carcinogenesis bioassay, tumor incidence TD50
Test: chronic cancer bioassays in animals – CPDB, compiled studies (AID 1745844)

In the case of `Oc1ccccc1O`, the TD50 (mouse, strain B6C3F1, females, in feed, site: forestomach, lesion: papilloma, dosed 96 weeks, study length 96 weeks) is reported as 17300 mg/kg/day, the TD50 (mouse, strain B6C3F1, females, in feed, site: liver, lesion: hyperplastic nodule, dosed 96 weeks, study length 96 weeks) is reported as 17300 mg/kg/day and the TD50 (mouse, strain B6C3F1, females, in feed, site: stomach, glandular, lesion: adenoma, dosed 96 weeks, study length 96 weeks) is reported as 471 mg/kg/day. The TD50 (mouse, strain B6C3F1, males, in feed, site: all sites, lesion: lymphoma and leukemia, combined, dosed 96 weeks, study length 96 weeks) was 2460 mg/kg/day, the TD50 (mouse, strain B6C3F1, males, in feed, site: forestomach, lesion: papilloma, dosed 96 weeks, study length 96 weeks) was 16500 mg/kg/day and the TD50 (mouse, strain B6C3F1, males, in feed, site: lung, lesion: adenoma, dosed 96 weeks, study length 96 weeks) was 16500 mg/kg/day. It also gave a TD50 (mouse, strain B6C3F1, males, in feed, site: stomach, glandular, lesion: adenoma, dosed 96 weeks, study length 96 weeks) of 165 mg/kg/day, a TD50 (rat, strain Crj:Wistar, males, in feed, site: forestomach, lesion: squamous-cell carcinoma, dosed 104 weeks, study length 104 weeks) of 6470 mg/kg/day and a TD50 (rat, strain Crj:Wistar, males, in feed, site: forestomach, lesion: squamous-cell papilloma, dosed 104 weeks, study length 104 weeks) of 3180 mg/kg/day. For the same compound, the TD50 (rat, strain Crj:Wistar, males, in feed, site: liver, lesion: hepatocellular carcinoma, dosed 104 weeks, study length 104 weeks) was 6470 mg/kg/day, the TD50 (rat, strain Crj:Wistar, males, in feed, site: liver, lesion: hyperplastic nodule, dosed 104 weeks, study length 104 weeks) was 3180 mg/kg/day and the TD50 (rat, strain Crj:Wistar, males, in feed, site: stomach, glandular, lesion: adenocarcinoma, dosed 104 weeks, study length 104 weeks) was 200 mg/kg/day. It also gave a TD50 (rat, strain Crj:Wistar, males, in feed, site: stomach, glandular, lesion: adenoma, dosed 104 weeks, study length 104 weeks) of 64.5 mg/kg/day, a TD50 (rat, strain Crj:Wistar, males, in feed, site: stomach, glandular, lesion: sarcoma, dosed 104 weeks, study length 104 weeks) of 2080 mg/kg/day and a TD50 (rat, strain F344/DuCrj, females, in feed, site: stomach, glandular, lesion: adenocarcinoma, dosed 104 weeks, study length 104 weeks) of 490 mg/kg/day. For the same compound, the TD50 (rat, strain F344/DuCrj, males, in feed, site: forestomach, lesion: carcinoma, in situ, dosed 51 weeks, study length 52 weeks) was 833 mg/kg/day, the TD50 (rat, strain F344/DuCrj, males, in feed, site: forestomach, lesion: papilloma, dosed 51 weeks, study length 52 weeks) was 833 mg/kg/day and the TD50 (rat, strain F344/DuCrj, males, in feed, site: forestomach, lesion: papilloma, dosed 104 weeks, study length 104 weeks) was 2960 mg/kg/day. For the same compound, the TD50 (rat, strain F344/DuCrj, males, in feed, site: forestomach, lesion: squamous-cell papilloma, dosed 51 weeks, study length 52 weeks) was 833 mg/kg/day, the TD50 (rat, strain F344/DuCrj, males, in feed, site: forestomach, lesion: squamous-cell papilloma, dosed 104 weeks, study length 104 weeks) was 3300 mg/kg/day and the TD50 (rat, strain F344/DuCrj, males, in feed, site: pancreas, lesion: acinar-cell adenoma, dosed 104 weeks, study length 104 weeks) was 1180 mg/kg/day. It also gave a TD50 (rat, strain F344/DuCrj, males, in feed, site: stomach, glandular, pyloric region, lesion: adenocarcinoma, dosed 104 weeks, study length 104 weeks) of 3320 mg/kg/day, a TD50 (rat, strain F344/DuCrj, males, in feed, site: stomach, glandular, pyloric region, lesion: adenoma, dosed 104 weeks, study length 104 weeks) of 43.5 mg/kg/day and a TD50 (rat, strain F344/DuCrj, males, in feed, site: stomach, glandular, pyloric region, lesion: sarcoma, dosed 104 weeks, study length 104 weeks) of 1940 mg/kg/day. For the same compound, the TD50 (rat, strain F344/DuCrj, males, in feed, site: stomach, glandular, lesion: adenocarcinoma, dosed 48 weeks, study length 96 weeks) was 387 mg/kg/day, the TD50 (rat, strain F344/DuCrj, males, in feed, site: stomach, glandular, lesion: adenocarcinoma, dosed 51 weeks, study length 51 weeks) was 130 mg/kg/day and the TD50 (rat, strain F344/DuCrj, males, in feed, site: stomach, glandular, lesion: adenocarcinoma, dosed 72 weeks, study length 72 weeks) was 206 mg/kg/day. It also gave a TD50 (rat, strain F344/DuCrj, males, in feed, site: stomach, glandular, lesion: adenocarcinoma, dosed 72 weeks, study length 96 weeks) of 202 mg/kg/day, a TD50 (rat, strain F344/DuCrj, males, in feed, site: stomach, glandular, lesion: adenocarcinoma, dosed 96 weeks, study length 96 weeks) of 141 mg/kg/day and a TD50 (rat, strain F344/DuCrj, males, in feed, site: stomach, glandular, lesion: adenocarcinoma, dosed 104 weeks, study length 104 weeks) of 286 mg/kg/day. For the same compound, the carcinogen call (rat, strain F344/DuCrj, males, in feed, site: stomach, glandular, lesion: adenoma, dosed 48 weeks, study length 96 weeks) was “positive”, the carcinogen call (rat, strain F344/DuCrj, males, in feed, site: stomach, glandular, lesion: adenoma, dosed 51 weeks, study length 51 weeks) was “positive” and the carcinogen call (rat, strain F344/DuCrj, males, in feed, site: stomach, glandular, lesion: adenoma, dosed 51 weeks, study length 52 weeks) was “positive”. The carcinogen call (rat, strain F344/DuCrj, males, in feed, site: stomach, glandular, lesion: adenoma, dosed 72 weeks, study length 72 weeks) was “positive”, the carcinogen call (rat, strain F344/DuCrj, males, in feed, site: stomach, glandular, lesion: adenoma, dosed 72 weeks, study length 96 weeks) was “positive” and the carcinogen call (rat, strain F344/DuCrj, males, in feed, site: stomach, glandular, lesion: adenoma, dosed 96 weeks, study length 96 weeks) was “positive”. For the same compound, the carcinogen call (rat, strain F344/DuCrj, males, in feed, site: stomach, glandular, lesion: several types, types named in the paper, dosed 51 weeks, study length 52 weeks) was “positive”, the TD50 (rat, strain Fischer 344, males, in drinking water, site: prostate, lesion: carcinoma, in situ, dosed 78 weeks, study length 78 weeks) was 236 mg/kg/day (inactive) and the carcinogen call (rat, strain Fischer 344, males, in drinking water, site: urinary bladder, lesion: one or several types, types not named, dosed 78 weeks, study length 78 weeks) was “negative (inactive)”. It also gave a TD50 (rat, strain LEW/Crj (Lewis), males, in feed, site: stomach, glandular, lesion: adenocarcinoma, dosed 104 weeks, study length 104 weeks) of 166 mg/kg/day, a TD50 (rat, strain LEW/Crj (Lewis), males, in feed, site: stomach, glandular, lesion: adenoma, dosed 104 weeks, study length 104 weeks) of 64.5 mg/kg/day and a TD50 (rat, strain LEW/Crj (Lewis), males, in feed, site: stomach, glandular, lesion: sarcoma, dosed 104 weeks, study length 104 weeks) of 2080 mg/kg/day. The TD50 (rat, strain SD(Crj:CD) Sprague-Dawley, males, in feed, site: forestomach, lesion: squamous-cell carcinoma, dosed 104 weeks, study length 104 weeks) was 6470 mg/kg/day, the TD50 (rat, strain SD(Crj:CD) Sprague-Dawley, males, in feed, site: forestomach, lesion: squamous-cell papilloma, dosed 104 weeks, study length 104 weeks) was 983 mg/kg/day and the TD50 (rat, strain SD(Crj:CD) Sprague-Dawley, males, in feed, site: stomach, glandular, lesion: adenocarcinoma, dosed 104 weeks, study length 104 weeks) was 151 mg/kg/day. For the same compound, the carcinogen call (rat, strain SD(Crj:CD) Sprague-Dawley, males, in feed, site: stomach, glandular, lesion: adenoma, dosed 104 weeks, study length 104 weeks) was “positive”, the TD50 (rat, strain WKY/NCrj (Wistar), males, in feed, site: forestomach, lesion: squamous-cell papilloma, dosed 104 weeks, study length 104 weeks) was 6470 mg/kg/day and the TD50 (rat, strain WKY/NCrj (Wistar), males, in feed, site: liver, lesion: several types, types named in the paper, dosed 104 weeks, study length 104 weeks) was 12400 mg/kg/day. The TD50 (rat, strain WKY/NCrj (Wistar), males, in feed, site: stomach, glandular, lesion: adenocarcinoma, dosed 104 weeks, study length 104 weeks) was 2080 mg/kg/day and the carcinogen call (rat, strain WKY/NCrj (Wistar), males, in feed, site: stomach, glandular, lesion: adenoma, dosed 104 weeks, study length 104 weeks) was “positive”.
For `CCOC(=O)C(C)(C)Oc1ccc(Cl)cc1`, the TD50 (mouse, strain AP Alderly Park, females, in feed, site: liver, lesion: hepatocellular adenoma, dosed 78 weeks, study length 78 weeks) was 1480 mg/kg/day (inactive), the TD50 (mouse, strain AP Alderly Park, males, in feed, site: liver, lesion: hepatocellular adenoma, dosed 78 weeks, study length 78 weeks) was 313 mg/kg/day (inactive) and the TD50 (mouse, strain AP Alderly Park, males, in feed, site: liver, lesion: hepatocellular carcinoma, dosed 78 weeks, study length 78 weeks) was 9710 mg/kg/day (inactive). The TD50 (mouse, strain C57BL/10J, females, in feed, site: liver, lesion: hepatocellular adenoma, dosed 78 weeks, study length 78 weeks) was 14700 mg/kg/day (inactive), the carcinogen call (mouse, strain C57BL/10J, females, in feed, site: lung, lesion: one or several types, types not named, dosed 78 weeks, study length 78 weeks) was “negative (inactive)” and the TD50 (mouse, strain C57BL/10J, males, in feed, site: liver, lesion: hepatocellular adenoma, dosed 78 weeks, study length 78 weeks) was 3640 mg/kg/day (inactive). For the same compound, the carcinogen call (mouse, strain C57BL/10J, males, in feed, site: lung, lesion: one or several types, types not named, dosed 78 weeks, study length 78 weeks) was “negative (inactive)”, the TD50 (rat, strain Fischer 344, males, in feed, site: liver, lesion: hepatocellular carcinoma, dosed 121 weeks, study length 121 weeks) was 169 mg/kg/day and the TD50 (rat, strain Fischer 344, males, in feed, site: pancreas, lesion: acinar-cell carcinoma, dosed 121 weeks, study length 121 weeks) was 1300 mg/kg/day.
`Cc1ncc([N+](=O)[O-])n1C` showed a TD50 (rat, strain Sprague-Dawley, females, in feed, site: any site (literature study), lesion: several types, types named in the paper, dosed 46 weeks, study length 66 weeks) of 17 mg/kg/day and a TD50 (rat, strain Sprague-Dawley, females, in feed, site: mammary gland, lesion: fibroadenoma, dosed 46 weeks, study length 66 weeks) of 17 mg/kg/day.
In the case of `Cn1cnc2nc(N)[nH]c(=O)c21`, the TD50 (rat, strain BR 46, both sexes, i.v., site: any site (literature study), lesion: malignant tumor, dosed 106 weeks, study length 126 weeks) is reported as 8.24 mg/kg/day (inactive).
For `CC1(C)C(=O)Nc2ccc(C3=NNC(=O)CC3)cc21`, the TD50 (rat, strain Fischer 344, females, in feed, site: adrenal medulla, lesion: pheochromocytoma, benign, dosed 104 weeks, study length 104 weeks) was 5.05 mg/kg/day, the TD50 (rat, strain Fischer 344, females, in feed, site: adrenal medulla, lesion: several types, types named in the paper, dosed 104 weeks, study length 104 weeks) was 4.82 mg/kg/day and the TD50 (rat, strain Fischer 344, males, in feed, site: adrenal medulla, lesion: pheochromocytoma, benign, dosed 95 weeks, study length 95 weeks) was 1.38 mg/kg/day. The TD50 (rat, strain Fischer 344, males, in feed, site: adrenal medulla, lesion: pheochromocytoma, malignant, dosed 95 weeks, study length 95 weeks) was 23.8 mg/kg/day and the TD50 (rat, strain Fischer 344, males, in feed, site: adrenal medulla, lesion: several types, types named in the paper, dosed 95 weeks, study length 95 weeks) was 1.27 mg/kg/day.
In the case of `ClC(Br)Br`, the TD50 (mouse, strain B6C3F1, females, by gavage, site: liver, lesion: hepatocellular adenoma + hepatocellular carcinoma + neoplastic nodule, dosed 105 weeks, study length 106 weeks) is reported as 139 mg/kg/day, the TD50 (mouse, strain B6C3F1, females, by gavage, site: liver, lesion: hepatocellular adenoma + hepatocellular carcinoma, dosed 105 weeks, study length 106 weeks) is reported as 139 mg/kg/day and the TD50 (mouse, strain B6C3F1, females, by gavage, site: liver, lesion: hepatocellular adenoma, dosed 105 weeks, study length 106 weeks) is reported as 211 mg/kg/day. For the same compound, the TD50 (mouse, strain B6C3F1, males, by gavage, site: any site (literature study), lesion: several types, types named in the paper, dosed 105 weeks, study length 106 weeks) was 11.3 mg/kg/day, the TD50 (mouse, strain B6C3F1, males, by gavage, site: liver, lesion: hepatocellular adenoma + hepatocellular carcinoma + neoplastic nodule, dosed 105 weeks, study length 106 weeks) was 20.7 mg/kg/day and the TD50 (mouse, strain B6C3F1, males, by gavage, site: liver, lesion: hepatocellular adenoma + hepatocellular carcinoma, dosed 105 weeks, study length 106 weeks) was 20.7 mg/kg/day. The TD50 (mouse, strain B6C3F1, males, by gavage, site: liver, lesion: hepatocellular carcinoma, dosed 105 weeks, study length 106 weeks) was 33.5 mg/kg/day, the TD50 (mouse, strain B6C3F1, males, by gavage, site: lung, lesion: alveolar/bronchiolar adenoma + alveolar/bronchiolar carcinoma, dosed 105 weeks, study length 106 weeks) was 115 mg/kg/day and the carcinogen call (rat, strain Fischer 344, females, by gavage, site: any site (literature study), lesion: several types, types named in the paper, dosed 104 weeks, study length 105 weeks) was “negative (inactive)”. The TD50 (rat, strain Fischer 344, females, by gavage, site: liver, lesion: hepatocellular adenoma + hepatocellular carcinoma + neoplastic nodule, dosed 104 weeks, study length 105 weeks) was 591 mg/kg/day, the carcinogen call (rat, strain Fischer 344, males, by gavage, site: any site (literature study), lesion: several types, types named in the paper, dosed 104 weeks, study length 105 weeks) was “negative (inactive)” and the TD50 (rat, strain Fischer 344, males, by gavage, site: liver, lesion: hepatocellular adenoma + hepatocellular carcinoma + neoplastic nodule, dosed 104 weeks, study length 105 weeks) was 150 mg/kg/day.
